Assay results published in article PMC11768771, “Identification of a New Pentafluorosulfanyl-Substituted Chalcone with Activity Against Hepatoma and Human Parasites” (Pharmaceuticals, 2025).
“Also recorded” adds a separate entry of the source. Read-outs that look alike come from different tables or passages of the source.

Key:
[1] = test system: HepG2; test: Antiproliferative activity, crystal violet assay; format: cell-based; details: Homo sapiens, HepG2, 48 h, mean ± SD
Method: (§3) Human hepatocellular carcinoma cell lines HepG2 (ATCC number: HB-8065) and HuH-7 (JCRB number: JCRB0403) were cultured at Roswell Park Memorial Institute (RPMI) 1640 Medium (Gibco, Thermo Fisher Scientific, Waltham, MA, USA) supplemented with 10% fetal bovine serum, 2 mM L-glutamine (Corning, Glendale, CA, USA), 100 U/mL penicillin and 100 µg/mL streptomycin (Bio&SELL, Feucht, Germany) at 37 °C, 5% CO2 in a humidified atmosphere in an incubator.
(§4) Treatment-induced antiproliferative effects measured as a decrease in cell number were assessed by crystal violet (N-hexamethylpararosaniline from Sigma-Aldrich, Darmstadt, Germany) staining as described before [71, 88]. In brief, HepG2 and HuH-7 cells were seeded in 96-well plates and allowed to adhere to the bottom of the wells and grow for 72 h in an incubator (37 °C, 5% CO2, humidified atmosphere). Afterwards, the cells were treated with rising concentrations of the chalcones, sorafenib and 17-AAG. After 24 h, 48 h and 72 h, respectively, the cells were fixed using 1% glutaraldehyde and stained for 30 min with 0.1% crystal violet. The excess unbound dye was removed by rinsing with water for 30 min. Cells were then lysed by incubation with 0.2% Triton X-100 (Sigma-Aldrich, Darmstadt, Germany) overnight dissolving the bound dye. The extinction of crystal violet was measured at 570 nm using ELISA readers (Dynex Technologies, Denkendorf, Germany; GloMax® Discover Microplate Reader Promega, Madison, WI, USA). IC50 values are given as means ± SD of a minimum of three independent experiments performed in triplicates and more.

[2] = test system: HuH-7; test: Antiproliferative activity, crystal violet assay; format: cell-based; details: Homo sapiens, Huh-7, 48 h, mean ± SD
Method: as §3, §4

[3] = test system: T. gondii tachyzoites (RH strain); test: Toxoplasma gondii testing assay; format: cell-based; details: for IC50: Toxoplasma gondii, T. gondii parasites cultivated in Vero cells; for SI selectivity index (Vero/T. gondii): ratio Vero IC50 / T. gondii IC50
Method: Cells of the Vero cell line (ATCC® CCL81™, Manassas, VA, USA) were used to cultivate T. gondii tachyzoites (RH strain, a gift from Dr. Saeed El-Ashram, State Key Laboratory for Agrobiotechnology, China Agricultural University, Beijing, China). Effects of test compounds on T. gondii growth were investigated as published previously and expressed as IC50 values, which were calculated from three independent experiments [63, 89].

[4] = test system: Vero monkey kidney cells; test: Vero cell cytotoxicity (MTT assay); format: cell-based; details: Primates
Method: (§5) Cytotoxicity to Vero cells or murine macrophages was evaluated using the MTT assay according to previously published articles and expressed as IC50 values which were determined from three independent experiments [63, 91].

[5] = test system: L. major promastigotes; test: Leishmania major testing assay, promastigotes; format: cell-based; details: for SI (Promastigotes) selectivity index (macrophages/L. major): ratio macrophages IC50 / promastigotes IC50
Method: (§6) Promastigotes (obtained from a patient in 2016) and amastigotes of L. major were applied for drug testing according to previously published methods [63, 90]. IC50 values were calculated from three independent experiments.

[6] = test system: L. major amastigotes; test: Leishmania major testing assay, amastigotes; format: cell-based; details: for IC50: Leishmania major; for SI (Amastigotes) selectivity index (macrophages/L. major): ratio macrophages IC50 / amastigotes IC50
Method: as §6

[7] = test system: murine macrophages; test: Macrophage cytotoxicity (MTT assay); format: cell-based; details: Mus musculus
Method: as §5

[8] = test system: HepG2; test: Colony formation assay; format: cell-based, Human; details: HepG2, 14 days of growth under treatment
Method: (§7) Long-term effects of drug treatment on proliferation and clonogenicity were assessed by colony formation assays. HCC cell lines were seeded at 1000 cells/well (HepG2) and 200 cells/well (HuH-7) in 6-well plates and allowed to adhere overnight. […] Untreated cells served as controls. After 14 d, the cells were washed with PBS, fixed with 4% formaldehyde for 1 h and stained with 0.5% crystal violet for 3 min. Excess crystal violet dye was removed by gently rinsing with water. Representative images were taken and stained colonies were counted. A colony was defined as a cell aggregate of 50 or more cells. n = 4 independent experiments were performed and significance was tested by one-way ANOVA assays.

[9] = test system: HuH-7; test: Colony formation assay; format: cell-based, Human; details: HuH-7, 14 days of growth under treatment
Method: as §7

[10] = test system: HepG2; test: Lactate dehydrogenase (LDH) assay, unspecific cytotoxicity; format: cell-based, Human; details: HepG2, 1, 5 and 10 µM, 6 h and 24 h, vs untreated controls
Method: (§1) To exclude unspecific compound-induced cytotoxicity as the predominant mode of action a lactate dehydrogenase (LDH) assay was performed using the Cytotoxicity Detection Kit^PLUS LDH (Roche Diagnostics GmbH, Mannheim, Germany, Cat. No. 4744934001) as described earlier. In short, HCC cells were seeded in 96-well plates at 8 × 10^3 cells/well (HepG2) and 10 × 10^3 cells/well (HuH-7). Following incubation overnight, the cells were treated with 246TMP-3SF5 and 17-AAG at final concentrations of 1 µM, 5 µM and 10 µM, respectively, for 6 h and 24 h. The formation of the red-brownish formazan dye, which is formed proportionally to the LDH enzyme activity in the sample, was measured at 490/600 nm using the GloMax® Discover Microplate Reader (Promega, Madison, WI, USA). Unspecific cytotoxicity was determined by measuring the percentage of LDH release into the supernatant of treated cells compared to untreated controls. Measurements were performed in triplicate in n = 3 independent experiments and mean percentage changes ± SEM as compared to controls are shown.

[11] = test system: HuH-7; test: as above; format: cell-based, Human; details: HuH-7, 1, 5 and 10 µM, 6 h and 24 h, vs untreated controls
Method: as §1

[12] = test system: Hsp90 in HepG2 cells; test: Western blot analysis of Hsp90 expression; format: cell-based, Human; details: HepG2, 24 h treatment
Method: (§2) Changes in the level of protein expression were assessed through Western blotting. HepG2 and HuH-7 cells were seeded at a density of 1 × 10^6 cells/well in 100 mm petri dishes and incubated until the desired confluency. Drugs were added at given concentrations for 24 h. Untreated cells served as controls. After washing with PBS, the cells were frozen at −20 °C. Subsequently, radioimmunoprecipitation assay (RIPA) buffer mixed with one cOmplete™ Mini Protease Inhibitor tablet/10 mL (Roche Diagnostics GmbH, Mannheim, Germany) was added to lyse the cells. Following these steps, the protein levels were analyzed using the Pierce™ BCA Protein Assay Kit (Thermo Fisher Scientific, Waltham, USA) and protein levels were normalized to ensure equal protein loading of 20 µg/lane. Laemmli buffer and β-mercaptoethanol were added to the probes following denaturation at 96 °C for 10 min. Proteins were separated using SDS–PAGE and electro-transferred to polyvinylidene difluoride (PVDF) membranes. Membranes were blocked in 5% non-fat dry milk in Tris-buffered saline with 0.1% Tween-20 and incubated with primary antibody overnight at 4 °C. […] Blots of n = 3 independent experiments were generated. β-Actin expression served as a loading control and calculated values were normalized to its expression.

[13] = test system: Hsp90 in HuH-7 cells; test: Western blot analysis of Hsp90 expression; format: cell-based, Human; details: HuH-7, 24 h treatment
Method: as §2

[14] = test system: Hsp70 in HepG2 cells; test: Western blot analysis of Hsp70 expression; format: cell-based, Human; details: HepG2, 24 h treatment
Method: as §2

[15] = test system: Hsp70 in HuH-7 cells; test: Western blot analysis of Hsp70 expression; format: cell-based, Human; details: HuH-7, 24 h treatment
Method: as §2

[16] = test system: T. gondii tachyzoites (RH strain); parameters: method as in PMID 34174635; details: positive control; cited from earlier work

Row | SMILES | IC50 [1] [µM] | IC50 [2] [µM] | IC50 ([5]; Leishmania major) [µM] | IC50 [6] [µM] | IC50 [5] [µM] | IC50 [3] [µM] | SI selectivity index (Vero/T. gondii) [3] | IC50 [4] [µM] | SI (Promastigotes) selectivity index (macrophages/L. major) [5] | SI (Amastigotes) selectivity index (macrophages/L. major) [6] | IC50 [7] [µM] | Colony formation (long-term antiproliferative effect, clonogenicity) [8] | Colony formation (long-term antiproliferative effect, clonogenicity) [9] | LDH release (non-specific toxicity) [10] | LDH release (non-specific toxicity) [11] | Hsp90 protein expression level [12] | Hsp90 protein expression level [13] | Hsp70 protein expression level [14] | Hsp70 protein expression level [15] | IC50 [16] [µM]
1 | C=CCNC1=C2C[C@@H](C)C[C@H](OC)[C@H](O)[C@@H](C)/C=C(\C)[C@H](OC(N)=O)[C@@H](OC)/C=C\C=C(/C)C(=O)NC(=CC1=O)C2=O [17-AAG] | 1.6 ± 0.5 | 0.4 ± 0.4 |  |  |  |  |  |  |  |  |  | inhibited colony formation significantly; also recorded: close to no colonies formed | inhibited colony formation significantly; also recorded: close to no colonies formed |  |  |  |  |  |  | 
2 | COc1ccc(C(=O)/C=C/c2cccc([N+](=O)[O-])c2)c(OC)c1 [24DMP-3NO] | > 10 | > 10 | < 1 | 28.4 | 0.86 | 2.2 | 2.4 | 5.4 | 29.3 | 0.89 | 25.2 |  |  |  |  |  |  |  |  | 
3 | COc1cc(OC)c(C(=O)/C=C/c2cccc(S(F)(F)(F)(F)F)c2)c(OC)c1 [246TMP-3SF5, 2′,4′,6′-trimethoxy-3-pentafluorosulfanylchalcone] | 1.3 ± 0.2 | 2.2 ± 0.3 | 9.2 | 20.3 |  | 0.42 | 2.8 | 1.2 | 3.5 | 1.6 | 32.1 | dose-dependent decrease in colonies formed; also recorded: close to no colonies formed | dose-dependent decrease in colonies formed; also recorded: close to no colonies formed | does not significantly increase LDH release | does not significantly increase LDH release | almost no changes | almost no changes | drastically increased | drastically increased | 
4 | COc1cc(OC)c(C(=O)/C=C/c2c3ccccc3cc3ccccc23)c(OC)c1 [246TMP-Anth, 2′,4′,6′-trimethoxy-9-anthracenylchalcone] | > 10 | > 10 | < 1 | 18.8 | 0.73 | 5.8 | 3.4 | 19.6 | 21.7 | 0.84 | 15.8 |  |  |  |  |  |  |  |  | 
5 | O=C1C(O)=C([C@H]2CC[C@H](c3ccc(Cl)cc3)CC2)C(=O)c2ccccc21 [ATO] |  |  |  |  |  |  |  |  |  |  |  |  |  |  |  |  |  |  |  | 0.07

Further lines, with some results ahead:

Row | IC50 [1] [µM] | IC50 [2] [µM] | IC50 ([5]; Leishmania major) [µM] | IC50 [6] [µM] | IC50 [5] [µM] | SMILES | IC50 [3] [µM] | SI selectivity index (Vero/T. gondii) [3] | IC50 [4] [µM] | SI (Promastigotes) selectivity index (macrophages/L. major) [5] | SI (Amastigotes) selectivity index (macrophages/L. major) [6] | IC50 [7] [µM] | Colony formation (long-term antiproliferative effect, clonogenicity) [8] | Colony formation (long-term antiproliferative effect, clonogenicity) [9] | LDH release (non-specific toxicity) [10] | LDH release (non-specific toxicity) [11] | Hsp90 protein expression level [12] | Hsp90 protein expression level [13] | Hsp70 protein expression level [14] | Hsp70 protein expression level [15] | IC50 [16] [µM]
6 | > 10 | > 10 | 1.8 | 33.7 |  | COc1ccccc1C(=O)/C=C/c1c2ccccc2cc2ccccc12 [2MeO-Anth] | 9.8 | 2.3 | 22.8 | 26.6 | 1.5 | 48.8 |  |  |  |  |  |  |  |  | 
7 | > 10 | > 10 | 2.2 | 28 |  | COc1ccc(C(=O)/C=C/c2c3ccccc3cc3ccccc23)c(OC)c1 [24DMP-Anth] | 7.6 | 2.9 | 22.3 | 22.3 | 1.7 | 48.3 |  |  |  |  |  |  |  |  | 
8 | 4.4 ± 1 | 5.4 ± 0.6 |  |  |  | CNC(=O)c1cc(Oc2ccc(NC(=O)Nc3ccc(Cl)c(C(F)(F)F)c3)cc2)ccn1 [Sorafenib, reference compound] |  |  |  |  |  |  | colony count did not differ much from the untreated controls | colony count did not differ much from the untreated controls |  |  |  |  |  |  | 
